Reference: US20090298752A1, “APLIDINE TREATMENT OF CANCERS” (PHARMA MAR, S.A., priority 1999, published 2009)

Legend:
[1] = test system: cell cycle; conditions: flow cytometric analysis; cited from earlier work
[2] = test system: B 16 melanoma; conditions: mice; cited from earlier work
[3] = test system: liver (AML-12); experiment: CellTiter96 (MTS) in vitro cytotoxicity assay; assay type: cell-based
Description: (§1) In fact, the dose limiting toxicity in humans is skeletal muscle atrophy.

[4] = test system: cardiac H9 c2 (2-1); experiment: CellTiter96 (MTS) in vitro cytotoxicity assay; assay type: cell-based
Description: as §1

[5] = test system: kidney (NRK-52E) cells; experiment: CellTiter96 (MTS) in vitro cytotoxicity assay; assay type: cell-based
Description: as §1

[6] = test system: skeletal muscle (L8); experiment: CellTiter96 (MTS) in vitro cytotoxicity assay; assay type: cell-based
Description: as §1

[7] = test system: myelogenous stem cells (FDC-P1); experiment: CellTiter96 (MTS) in vitro cytotoxicity assay; assay type: cell-based
Description: as §1

[8] = Phase I, 1 h weekly infusion x3 q4wk: toxicity and pharmacokinetics; assay type: in vivo, human; design: CL: unit not given here
Description: Adult patients with advanced disease, PS<3, and appropriate organ function are considered eligible; patients receive aplidine wk×3/q^4 wks. 24 solid tumour patients have been entered: median (m) age 55 y, m ECOG=1, 15/24 patients treated with =>2 treatment cycles. Seven dose levels (DL) from 133 mcg/m^2/wk to 2700 mcg/m^2/wk have been assessed: 102 infusions are evaluable for toxicity (tox). […] At 2700 mcg/m^2/wk (4 pts), 1 had G3 hiperbilirrubinemia that has been considered to be dose limiting and therefore 2700 mcg/m^2/wk DL is being expanded. […] Plasma levels >1 ng/ml 24 hours after infusion are reachable form 1800 mcg/m^2/wk. […] Aplidine appears to be clinically feasible at pharmacologically appropriate dose levels.
Aplidine was administered as a 1 hour weekly×3 every four weeks

[9] = test system: brain cells (neurons and astrocytes); experiment: fluorescent viability stain with immunocytochemistry; assay type: cell-based; conditions: ethidium homodimer and calcein AM
Description: (§2) The motor neuron sensitivity may help to explain the type II muscle atrophy observed (as predicted) in a small group of patients where the AUC concentration of the drug is elevated due to diminished excretion.

[10] = test system: substance P positive sensory neurones; experiment: as above; assay type: cell-based; conditions: ethidium homodimer and calcein AM
Description: as §2

[11] = test system: motor (choline acetyl transferatse positive) neurons in the spinal cord; experiment: as above; assay type: cell-based; conditions: ethidium homodimer and calcein AM
Description: as §2

[12] = test system: VEGF mRNA; experiment: VEGF mRNA levels in IGROV-1; assay type: cell-based, human
[13] = 3-compartment model, preliminary

Substance: aplidine
- cell cycle pertubations [1]: did not induce any apparent cell cycle pertubations
- activity against implanted tumour [2]: active
- LD50 [3]: 1 µM
- LD50 [4]: 1 µM
- LD50 [5]: 0.1 nM
- LD50 [6]: 0.1 nM
- LD50 [7]: 0.1 µM
- initial phase median half-life [8, 13]: 2.4 min
- intermediate phase median half-life [8, 13]: 1.4 h
- terminal phase median half-life [8, 13]: 20.7 h
- Hypertension G3 (worst toxicity per patient) ([8]; 133 mcg/m^2/wk x3, 3 patients): (1)
- Transaminitis G2 (worst toxicity per patient) ([8]; 133 mcg/m^2/wk x3, 3 patients): 1
- Alk. Phos. G3 (worst toxicity per patient) ([8]; 266 mcg/m^2/wk x3, 3 patients): (1)
- Injection site reaction G2 (worst toxicity per patient) ([8]; 266 mcg/m^2/wk x3, 3 patients): 1
- Asthenia G2 (worst toxicity per patient) ([8]; 532 mcg/m^2/wk x3, 3 patients): 1
- Transaminitis G3 (worst toxicity per patient) ([8]; 532 mcg/m^2/wk x3, 3 patients): (1)
- Asthenia G2 (worst toxicity per patient) ([8]; 800 mcg/m^2/wk x3, 3 patients): 1(1)
- Asthenia G3 (worst toxicity per patient) ([8]; 800 mcg/m^2/wk x3, 3 patients): 1(1)
- CPK elevation G1 (worst toxicity per patient) ([8]; 800 mcg/m^2/wk x3, 3 patients): 1
- Hypertension G1 (worst toxicity per patient) ([8]; 800 mcg/m^2/wk x3, 3 patients): 1
- Injection site reaction G2 (worst toxicity per patient) ([8]; 800 mcg/m^2/wk x3, 3 patients): 1
- Nausea/vomiting G2 (worst toxicity per patient) ([8]; 800 mcg/m^2/wk x3, 3 patients): 3
- Transaminitis G2 (worst toxicity per patient) ([8]; 800 mcg/m^2/wk x3, 3 patients): 1
- Asthenia G2 (worst toxicity per patient) ([8]; 1200 mcg/m^2/wk x3, 4 patients): 3
- Injection site reaction G2 (worst toxicity per patient) ([8]; 1200 mcg/m^2/wk x3, 4 patients): 1
- Myalgia G3 (worst toxicity per patient) ([8]; 1200 mcg/m^2/wk x3, 4 patients): (1)
- Alk. Phos. G2 (worst toxicity per patient) ([8]; 1800 mcg/m^2/wk x3, 4 patients): 1
- Asthenia G2 (worst toxicity per patient) ([8]; 1800 mcg/m^2/wk x3, 4 patients): 2
- Injection site reaction G2 (worst toxicity per patient) ([8]; 1800 mcg/m^2/wk x3, 4 patients): 1
- Nausea/vomiting G2 (worst toxicity per patient) ([8]; 1800 mcg/m^2/wk x3, 4 patients): 3
- Transaminitis G2 (worst toxicity per patient) ([8]; 1800 mcg/m^2/wk x3, 4 patients): 1
- G3 hiperbilirrubinemia (dose limiting) ([8]; 2700 mcg/m^2/wk (4 pts)): 1
- Asthenia G2 (worst toxicity per patient) ([8]; 2700 mcg/m^2/wk x3, 8 patients): 1(1)
- Asthenia G3 (worst toxicity per patient) ([8]; 2700 mcg/m^2/wk x3, 8 patients): 1(1)
- Injection site reaction G2 (worst toxicity per patient) ([8]; 2700 mcg/m^2/wk x3, 8 patients): 3
- Nausea/vomiting G2 (worst toxicity per patient) ([8]; 2700 mcg/m^2/wk x3, 8 patients): 2
- Transaminitis G2 (worst toxicity per patient) ([8]; 2700 mcg/m^2/wk x3, 8 patients): 1
- Bilirrubin G3 (worst toxicity per patient) ([8]; 2700 mcg/m^2/wk x3, 8 patients, footnote DLT): 1(1)^(2)
- CPK elevation G1 (worst toxicity per patient) ([8]; 3600 mcg/m^2/wk x3, 2 patients): 1
- clinically feasible dose ([8]; 1 hour infusion weekly with one week rest): ≤ 3600 mcg/m^2 every week
- haematological tox ([8]; Example 13, 102 infusions): No haematological tox
- CL ([8]; Example 13, median): 0.60
- m Vss ([8]; Example 13, median): 308 L/m^2
- m elimination half life ([8]; Example 13, median): 14.2 h
- Bone marrow toxicity ([8]; Example 17): has not been reported
- coefficient of variation of CL ([8]; Example 17, interpatient): 33%
- Vss ([8]; Example 17, median (quartiles)): 345 (220-398) L/m^2
- t ½ ([8]; Example 17, median (quartiles)): 15.8 (13.3-19.5) h
- plasma CL ([8]; Example 17, median, quartiles 288-407): 329 mL/min/m^2
- dose from which potentially therapeutic plasma levels are achievable ([8]; in vivo): ≥ 1200 μg/m^2
- Plasma levels 24 hours after infusion ([8]; reachable from 1800 mcg/m^2/wk): > 1 ng/mL
- toxic concentration [9]: approximately 1 μM
- toxicity at approximately 1 μM [10]: but not substance P positive sensory neurones
- toxic concentration [11]: approximately 1 μM
- mRNA levels of VEGF, in words [12]: reduces the mRNA levels of VEGF
